Measurements: publication PMC5290327, “SC83288 is a clinical development candidate for the treatment of severe malaria” (Nature Communications, 2017)

Legend:
Test in all cases: KINOMEscan
Assay type in all cases: binding
Conditions in all cases: read-out: Remaining enzyme activity
BRAF = target: T1, BRAF (Homo sapiens, UniProt P15056)
T1 construct: purchased Ambit (DiscoverX) KINOMEscan; Cerep
Summary of the method: (§1)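 Measures displacement of tagged kinase from an immobilized active-site probe rather than enzymatic activity. SC81458 was added at 10 μM final from a 40x stock in 100% DMSO. Bound kinase was eluted and counted via qPCR.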

MEK4 = target: T2, MEK4 (Homo sapiens, UniProt P45985)
T2 construct: purchased Ambit (DiscoverX) KINOMEscan; Cerep
Summary of the method: as §1

PIK3C2g = target: T3, PIK3C2g (Homo sapiens, UniProt O75747)
T3 construct: purchased Ambit (DiscoverX) KINOMEscan; Cerep
Summary of the method: as §1

FGFR2 = target: T4, FGFR2 (Homo sapiens, UniProt P21802)
T4 construct: purchased Ambit (DiscoverX) KINOMEscan; Cerep
Summary of the method: as §1

MST3 = target: T5, MST3 (Homo sapiens, UniProt Q9Y6E0)
T5 construct: purchased Ambit (DiscoverX) KINOMEscan; Cerep
Summary of the method: as §1

CSNK1g1 = target: T6, CSNK1g1 (Homo sapiens, UniProt Q9HCP0)
T6 construct: purchased Ambit (DiscoverX) KINOMEscan; Cerep
Summary of the method: as §1

LCK = target: T7, LCK (Homo sapiens, UniProt P06239)
T7 construct: purchased Ambit (DiscoverX) KINOMEscan; Cerep
Summary of the method: as §1

ACVR1 = target: T8, ACVR1 (Homo sapiens, UniProt Q04771)
T8 construct: purchased Ambit (DiscoverX) KINOMEscan; Cerep
Summary of the method: as §1

EGFR(E46-A750del) = target: T9, EGFR(E46-A750del) (Homo sapiens, UniProt P00533, DEL746-750)
T9 construct: purchased Ambit (DiscoverX) KINOMEscan; Cerep
Summary of the method: as §1

KIT(V559D, T670I) = target: T10, KIT(V559D, T670I) (Homo sapiens, UniProt P10721, T670I/V559D)
T10 construct: purchased Ambit (DiscoverX) KINOMEscan; Cerep
Summary of the method: as §1

BRK = target: T11, BRK (Homo sapiens, UniProt Q13882)
T11 construct: purchased Ambit (DiscoverX) KINOMEscan; Cerep
Summary of the method: as §1

ACVR1b = target: T12, ACVR1b (Homo sapiens, UniProt P36896)
T12 construct: purchased Ambit (DiscoverX) KINOMEscan; Cerep
Summary of the method: as §1

PIK3CA(H1047L) = target: T13, PIK3CA(H1047L) (Homo sapiens, UniProt P42336, H1047L)
T13 construct: purchased Ambit (DiscoverX) KINOMEscan; Cerep
Summary of the method: as §1

IKK-epsilon = target: T14, IKK-epsilon (Homo sapiens, UniProt Q14164)
T14 construct: purchased Ambit (DiscoverX) KINOMEscan; Cerep
Summary of the method: as §1

ERK2 = target: T15, ERK2 (Homo sapiens, UniProt P28482)
T15 construct: purchased Ambit (DiscoverX) KINOMEscan; Cerep
Summary of the method: as §1

DRAK1 = target: T16, DRAK1 (Homo sapiens, UniProt Q9UEE5)
T16 construct: purchased Ambit (DiscoverX) KINOMEscan; Cerep
Summary of the method: as §1

FGFR3(G697C) = target: T17, FGFR3(G697C) (Homo sapiens, UniProt P22607, G697C)
T17 construct: purchased Ambit (DiscoverX) KINOMEscan; Cerep
Summary of the method: as §1

CSNK1g3 = target: T18, CSNK1g3 (Homo sapiens, UniProt Q9Y6M4)
T18 construct: purchased Ambit (DiscoverX) KINOMEscan; Cerep
Summary of the method: as §1

CSK = target: T19, CSK (Homo sapiens, UniProt P41240)
T19 construct: purchased Ambit (DiscoverX) KINOMEscan; Cerep
Summary of the method: as §1

KIT(V559D) = target: T20, KIT(V559D) (Homo sapiens, UniProt P10721, V559D)
T20 construct: purchased Ambit (DiscoverX) KINOMEscan; Cerep
Summary of the method: as §1

PRKCH = target: T21, PRKCH (Homo sapiens, UniProt P24723)
T21 construct: purchased Ambit (DiscoverX) KINOMEscan; Cerep
Summary of the method: as §1

MAP3K2 = target: T22, MAP3K2 (Homo sapiens, UniProt Q9Y2U5)
T22 construct: purchased Ambit (DiscoverX) KINOMEscan; Cerep
Summary of the method: as §1

RIPK2 = target: T23, RIPK2 (Homo sapiens, UniProt O43353)
T23 construct: purchased Ambit (DiscoverX) KINOMEscan; Cerep
Summary of the method: as §1

KIT(D816V) = target: T24, KIT(D816V) (Homo sapiens, UniProt P10721, D816V)
T24 construct: purchased Ambit (DiscoverX) KINOMEscan; Cerep
Summary of the method: as §1

RIPK4 = target: T25, RIPK4 (Homo sapiens, UniProt P57078)
T25 construct: purchased Ambit (DiscoverX) KINOMEscan; Cerep
Summary of the method: as §1

RET = target: T26, RET (Homo sapiens, UniProt P07949)
T26 construct: purchased Ambit (DiscoverX) KINOMEscan; Cerep
Summary of the method: as §1

FGR = target: T27, FGR (Homo sapiens, UniProt P09769)
T27 construct: purchased Ambit (DiscoverX) KINOMEscan; Cerep
Summary of the method: as §1

LKB1 = target: T28, LKB1 (Homo sapiens, UniProt Q15831)
T28 construct: purchased Ambit (DiscoverX) KINOMEscan; Cerep
Summary of the method: as §1

[1] = target: T29, TYK2(JHdomain-speudokinase) (Homo sapiens, UniProt P29597)
T29 construct: TYK2(JHdomain-speudokinase); purchased Ambit (DiscoverX) KINOMEscan; Cerep
Summary of the method: as §1

[2] = target: T30, RPS6KA6(Kin.Dom.1-N-term) (Homo sapiens, UniProt Q9UK32)
T30 construct: RPS6KA6(Kin.Dom.1-N-term); purchased Ambit (DiscoverX) KINOMEscan; Cerep
Summary of the method: as §1

TLK1 = target: T31, TLK1 (Homo sapiens, UniProt Q9UKI8)
T31 construct: purchased Ambit (DiscoverX) KINOMEscan; Cerep
Summary of the method: as §1

PFTK1 = target: T32, PFTK1 (Homo sapiens, UniProt O94921)
T32 construct: purchased Ambit (DiscoverX) KINOMEscan; Cerep
Summary of the method: as §1

T20 sequence (P10721 26-976 V559D): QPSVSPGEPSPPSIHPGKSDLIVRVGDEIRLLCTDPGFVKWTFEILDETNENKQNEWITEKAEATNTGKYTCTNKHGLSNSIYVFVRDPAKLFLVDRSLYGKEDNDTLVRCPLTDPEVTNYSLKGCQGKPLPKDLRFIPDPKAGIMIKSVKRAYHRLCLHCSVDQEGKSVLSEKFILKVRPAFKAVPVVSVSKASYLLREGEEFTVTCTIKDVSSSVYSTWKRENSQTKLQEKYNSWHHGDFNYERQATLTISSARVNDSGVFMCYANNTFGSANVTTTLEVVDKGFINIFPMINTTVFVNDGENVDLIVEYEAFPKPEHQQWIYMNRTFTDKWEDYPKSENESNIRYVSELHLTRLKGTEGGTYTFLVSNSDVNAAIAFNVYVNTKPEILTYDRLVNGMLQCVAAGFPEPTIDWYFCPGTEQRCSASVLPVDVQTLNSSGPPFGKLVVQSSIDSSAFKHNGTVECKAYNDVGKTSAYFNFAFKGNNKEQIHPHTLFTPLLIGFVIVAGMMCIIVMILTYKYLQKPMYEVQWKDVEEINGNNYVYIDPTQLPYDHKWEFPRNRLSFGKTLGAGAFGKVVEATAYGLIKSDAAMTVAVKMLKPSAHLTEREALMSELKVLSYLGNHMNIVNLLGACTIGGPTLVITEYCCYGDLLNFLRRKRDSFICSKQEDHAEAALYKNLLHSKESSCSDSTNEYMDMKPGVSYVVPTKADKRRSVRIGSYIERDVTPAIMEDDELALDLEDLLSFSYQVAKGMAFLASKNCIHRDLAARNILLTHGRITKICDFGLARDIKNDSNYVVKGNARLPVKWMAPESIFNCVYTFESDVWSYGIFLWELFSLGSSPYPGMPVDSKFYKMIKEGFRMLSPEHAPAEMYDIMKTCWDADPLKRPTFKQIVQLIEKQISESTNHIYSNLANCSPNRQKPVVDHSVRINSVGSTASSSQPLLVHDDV
T27 sequence (P09769 whole entry): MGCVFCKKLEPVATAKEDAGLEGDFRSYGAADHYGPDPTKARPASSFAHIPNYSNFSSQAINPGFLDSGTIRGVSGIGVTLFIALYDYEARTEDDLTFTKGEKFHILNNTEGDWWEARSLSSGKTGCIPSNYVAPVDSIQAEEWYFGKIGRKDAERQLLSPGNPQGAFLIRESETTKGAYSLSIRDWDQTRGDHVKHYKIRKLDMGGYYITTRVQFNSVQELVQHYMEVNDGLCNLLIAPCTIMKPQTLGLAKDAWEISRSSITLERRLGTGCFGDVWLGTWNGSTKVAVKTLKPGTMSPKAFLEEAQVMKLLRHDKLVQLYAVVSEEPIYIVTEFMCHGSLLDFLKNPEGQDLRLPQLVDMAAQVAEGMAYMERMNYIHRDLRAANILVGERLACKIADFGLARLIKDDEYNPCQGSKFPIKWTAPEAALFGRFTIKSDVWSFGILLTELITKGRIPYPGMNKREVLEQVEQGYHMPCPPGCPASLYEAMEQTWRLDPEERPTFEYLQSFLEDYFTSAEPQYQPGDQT
T32 sequence (O94921 whole entry): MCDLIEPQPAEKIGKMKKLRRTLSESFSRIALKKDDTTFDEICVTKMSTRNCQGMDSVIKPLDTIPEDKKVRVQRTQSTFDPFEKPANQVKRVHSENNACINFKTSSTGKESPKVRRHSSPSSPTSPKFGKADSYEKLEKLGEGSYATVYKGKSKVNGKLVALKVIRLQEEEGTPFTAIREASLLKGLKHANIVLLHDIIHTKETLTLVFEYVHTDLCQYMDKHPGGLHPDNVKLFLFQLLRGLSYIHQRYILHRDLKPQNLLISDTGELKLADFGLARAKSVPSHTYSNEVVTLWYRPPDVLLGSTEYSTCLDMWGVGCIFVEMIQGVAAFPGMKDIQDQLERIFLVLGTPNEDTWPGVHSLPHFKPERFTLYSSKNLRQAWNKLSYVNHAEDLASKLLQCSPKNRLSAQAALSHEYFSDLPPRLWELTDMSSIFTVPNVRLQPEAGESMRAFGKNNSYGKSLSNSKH
T8 sequence (Q04771 21-509): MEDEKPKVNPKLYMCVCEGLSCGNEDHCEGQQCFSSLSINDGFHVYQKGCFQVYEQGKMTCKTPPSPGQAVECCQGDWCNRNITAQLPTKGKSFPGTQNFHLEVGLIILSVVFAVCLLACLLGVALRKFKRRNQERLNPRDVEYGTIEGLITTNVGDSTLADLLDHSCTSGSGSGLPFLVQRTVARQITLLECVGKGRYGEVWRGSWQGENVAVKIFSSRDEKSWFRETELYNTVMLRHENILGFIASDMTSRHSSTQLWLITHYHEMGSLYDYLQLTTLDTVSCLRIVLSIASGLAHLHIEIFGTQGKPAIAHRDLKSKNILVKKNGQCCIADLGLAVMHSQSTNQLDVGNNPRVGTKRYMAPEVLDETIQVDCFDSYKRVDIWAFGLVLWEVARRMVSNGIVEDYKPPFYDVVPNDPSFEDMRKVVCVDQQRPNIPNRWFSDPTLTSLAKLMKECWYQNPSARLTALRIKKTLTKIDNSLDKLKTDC
T11 sequence (Q13882 whole entry): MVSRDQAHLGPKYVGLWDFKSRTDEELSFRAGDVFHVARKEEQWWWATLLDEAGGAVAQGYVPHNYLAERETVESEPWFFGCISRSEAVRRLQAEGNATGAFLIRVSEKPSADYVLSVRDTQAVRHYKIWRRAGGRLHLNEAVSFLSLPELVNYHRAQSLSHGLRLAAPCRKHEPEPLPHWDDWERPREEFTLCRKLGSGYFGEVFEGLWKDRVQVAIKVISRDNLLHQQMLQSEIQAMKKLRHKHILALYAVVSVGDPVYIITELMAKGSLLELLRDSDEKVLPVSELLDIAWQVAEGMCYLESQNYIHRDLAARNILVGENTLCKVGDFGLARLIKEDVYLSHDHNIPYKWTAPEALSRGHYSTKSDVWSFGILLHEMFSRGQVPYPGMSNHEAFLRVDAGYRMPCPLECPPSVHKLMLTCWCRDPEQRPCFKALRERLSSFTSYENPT
T15 sequence (P28482 whole entry): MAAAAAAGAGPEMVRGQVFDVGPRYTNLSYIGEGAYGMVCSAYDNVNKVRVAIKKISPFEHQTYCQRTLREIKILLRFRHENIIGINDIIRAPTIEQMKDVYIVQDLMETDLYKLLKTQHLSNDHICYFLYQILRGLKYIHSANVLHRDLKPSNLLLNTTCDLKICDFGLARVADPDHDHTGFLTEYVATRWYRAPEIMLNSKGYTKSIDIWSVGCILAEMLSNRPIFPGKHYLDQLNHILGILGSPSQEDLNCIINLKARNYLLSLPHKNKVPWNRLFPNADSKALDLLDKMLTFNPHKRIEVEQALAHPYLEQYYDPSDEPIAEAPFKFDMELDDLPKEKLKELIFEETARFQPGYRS
T14 sequence (Q14164 whole entry): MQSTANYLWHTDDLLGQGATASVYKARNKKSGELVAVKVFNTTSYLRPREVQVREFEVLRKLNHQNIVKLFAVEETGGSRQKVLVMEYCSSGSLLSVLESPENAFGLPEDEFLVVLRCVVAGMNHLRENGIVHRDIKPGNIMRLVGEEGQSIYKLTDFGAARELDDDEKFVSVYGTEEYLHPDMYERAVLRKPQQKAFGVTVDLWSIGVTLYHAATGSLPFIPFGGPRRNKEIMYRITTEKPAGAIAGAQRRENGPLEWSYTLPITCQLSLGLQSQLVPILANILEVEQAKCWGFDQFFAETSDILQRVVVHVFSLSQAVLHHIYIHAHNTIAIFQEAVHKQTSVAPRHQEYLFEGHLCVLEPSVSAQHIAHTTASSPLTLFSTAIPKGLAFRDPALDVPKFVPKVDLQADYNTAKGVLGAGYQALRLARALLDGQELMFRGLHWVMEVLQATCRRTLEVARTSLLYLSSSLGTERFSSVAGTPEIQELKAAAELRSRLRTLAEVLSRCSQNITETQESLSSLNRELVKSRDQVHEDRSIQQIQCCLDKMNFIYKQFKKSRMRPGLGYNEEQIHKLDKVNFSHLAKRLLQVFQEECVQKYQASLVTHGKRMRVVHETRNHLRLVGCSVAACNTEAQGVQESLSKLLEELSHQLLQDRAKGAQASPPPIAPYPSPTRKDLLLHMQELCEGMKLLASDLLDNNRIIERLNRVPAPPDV
T6 sequence (Q9HCP0 whole entry): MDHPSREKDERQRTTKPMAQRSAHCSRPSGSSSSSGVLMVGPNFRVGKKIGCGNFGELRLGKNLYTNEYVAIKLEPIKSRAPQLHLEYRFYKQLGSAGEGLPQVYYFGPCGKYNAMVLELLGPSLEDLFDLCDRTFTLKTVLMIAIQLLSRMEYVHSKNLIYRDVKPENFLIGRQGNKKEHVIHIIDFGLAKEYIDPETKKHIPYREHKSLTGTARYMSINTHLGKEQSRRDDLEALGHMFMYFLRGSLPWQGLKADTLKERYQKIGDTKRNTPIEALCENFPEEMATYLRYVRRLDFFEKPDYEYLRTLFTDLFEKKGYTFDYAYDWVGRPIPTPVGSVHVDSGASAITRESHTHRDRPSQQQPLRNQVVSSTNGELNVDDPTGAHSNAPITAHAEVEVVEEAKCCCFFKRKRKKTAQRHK
T12 sequence (P36896 24-505): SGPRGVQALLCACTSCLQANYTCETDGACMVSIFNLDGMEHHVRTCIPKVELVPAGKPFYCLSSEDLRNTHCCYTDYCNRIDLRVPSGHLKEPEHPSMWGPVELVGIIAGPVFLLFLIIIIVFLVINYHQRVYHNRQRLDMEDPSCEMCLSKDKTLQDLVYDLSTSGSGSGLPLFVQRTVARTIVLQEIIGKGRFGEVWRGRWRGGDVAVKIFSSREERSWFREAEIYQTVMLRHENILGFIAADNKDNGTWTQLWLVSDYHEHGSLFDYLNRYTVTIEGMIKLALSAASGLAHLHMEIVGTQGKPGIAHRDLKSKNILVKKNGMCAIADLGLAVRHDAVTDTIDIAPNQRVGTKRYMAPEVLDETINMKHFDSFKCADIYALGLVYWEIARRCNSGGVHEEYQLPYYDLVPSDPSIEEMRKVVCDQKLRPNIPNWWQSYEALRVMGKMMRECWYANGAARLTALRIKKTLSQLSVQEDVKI
T24 sequence (P10721 26-976 D816V): as the sequence (P10721 26-976 V559D) above, with D534V, D791V counted along it
T10 sequence (P10721 26-976 V559D/T670I): as the sequence (P10721 26-976 V559D) above, with T645I counted along it

**Q.** With `CCCCN1CCN(C(=N)c2cccc(NC(=O)Nc3ccc(S(=O)(=O)NCc4ccc(S(N)(=O)=O)cc4)cc3)c2)CC1` [SC81458, 4-(3-(3-((4-butylpiperazin-1-yl)(imino)methyl)phenyl)ureido)-N-(4-sulfamoylbenzyl) benzenesulfonamide] as the compound, how does the remaining binding at 10 µM (BRAF) read?
**A.** Its remaining binding at 10 µM is 95%.

**Q.** What about the remaining binding at 10 µM (MEK4) of the same compound?
**A.** The remaining binding at 10 µM was 100%.

**Q.** What about the remaining binding at 10 µM (PIK3C2g) of the same compound?
**A.** Its remaining binding at 10 µM is 100%.

**Q.** And the remaining binding at 10 µM (FGFR2)?
**A.** Its remaining binding at 10 µM is 100%.

**Q.** What about the remaining binding at 10 µM (MST3) of the same compound?
**A.** Its remaining binding at 10 µM is 100%.

**Q.** What about the remaining binding at 10 µM (CSNK1g1) of the same compound?
**A.** The remaining binding at 10 µM was 100%.

**Q.** And the remaining binding at 10 µM (LCK)?
**A.** Its remaining binding at 10 µM is 100%.

**Q.** What about the remaining binding at 10 µM (ACVR1) of the same compound?
**A.** Its remaining binding at 10 µM is 84%.

**Q.** And the remaining binding at 10 µM (EGFR(E46-A750del))?
**A.** The remaining binding at 10 µM was 96%.

**Q.** What about the remaining binding at 10 µM (KIT(V559D, T670I)) of the same compound?
**A.** The remaining binding at 10 µM was 85%.

**Q.** What about the remaining binding at 10 µM (BRK) of the same compound?
**A.** The remaining binding at 10 µM was 100%.

**Q.** What about the remaining binding at 10 µM (ACVR1b) of the same compound?
**A.** Its remaining binding at 10 µM is 100%.

**Q.** And the remaining binding at 10 µM (PIK3CA(H1047L))?
**A.** The remaining binding at 10 µM was 100%.

**Q.** What about the remaining binding at 10 µM (IKK-epsilon) of the same compound?
**A.** Its remaining binding at 10 µM is 100%.

**Q.** What about the remaining binding at 10 µM (ERK2) of the same compound?
**A.** The remaining binding at 10 µM was 80%.

**Q.** What about the remaining binding at 10 µM (DRAK1) of the same compound?
**A.** The remaining binding at 10 µM was 98%.

**Q.** And the remaining binding at 10 µM (FGFR3(G697C))?
**A.** The remaining binding at 10 µM was 100%.

**Q.** What about the remaining binding at 10 µM (CSNK1g3) of the same compound?
**A.** The remaining binding at 10 µM was 100%.

**Q.** And the remaining binding at 10 µM (CSK)?
**A.** The remaining binding at 10 µM was 100%.

**Q.** What about the remaining binding at 10 µM (KIT(V559D)) of the same compound?
**A.** Its remaining binding at 10 µM is 100%.

**Q.** What about the remaining binding at 10 µM (PRKCH) of the same compound?
**A.** The remaining binding at 10 µM was 92%.

**Q.** And the remaining binding at 10 µM (MAP3K2)?
**A.** The remaining binding at 10 µM was 100%.

**Q.** And the remaining binding at 10 µM (RIPK2)?
**A.** Its remaining binding at 10 µM is 96%.

**Q.** What about the remaining binding at 10 µM (KIT(D816V)) of the same compound?
**A.** Its remaining binding at 10 µM is 100%.

**Q.** And the remaining binding at 10 µM (RIPK4)?
**A.** The remaining binding at 10 µM was 74%.

**Q.** What about the remaining binding at 10 µM (RET) of the same compound?
**A.** Its remaining binding at 10 µM is 89%.

**Q.** What about the remaining binding at 10 µM (FGR) of the same compound?
**A.** The remaining binding at 10 µM was 100%.

**Q.** What about the remaining binding at 10 µM (LKB1) of the same compound?
**A.** Its remaining binding at 10 µM is 88%.

**Q.** What about the remaining binding at 10 µM [1] of the same compound?
**A.** The remaining binding at 10 µM was 93%.

**Q.** And the remaining binding at 10 µM [2]?
**A.** Its remaining binding at 10 µM is 68%.

**Q.** And the remaining binding at 10 µM (TLK1)?
**A.** The remaining binding at 10 µM was 100%.

**Q.** And the remaining binding at 10 µM (PFTK1)?
**A.** The remaining binding at 10 µM was 100%.
